The record followed here is patent US20210330611A1, “THERAPY FOR NEUROLOGICAL DISEASES/DISORDERS” (priority 2020, published 2021).

For data set [1], the system named is fibrin-induced microglia activation. Description: Image-based assay of fibrin-induced microglia activation (HTS and dose response). Format: cell-based, rat. Particulars: for Fibrin % inhibition / inhibition at 10 µM: primary microglia HTS, fibrin stimulation; for inhibition at 10 µM: read-out: Fibrin % inhibition.
Data set [2] has as its system LPS-induced microglia activation. Description: Image-based assay of LPS-induced microglia activation (HTS and dose response). The conditions noted are these: for inhibition at 10 µM: read-out: LPS % inhibition. Format: cell-based, rat.
Data set [3] deals with fibrin- and LPS-induced microglia activation. Kind of data set: cells. The data set is classed as cell-based, rat. The conditions noted are these: for inhibition at 10 µM: Rattus norvegicus.
Data set [4] has as its system primary rat microglia.
In data set [5] the test system is primary rat microglia. The source holds these as a separate data set.
In data set [6] the test system is primary rat microglia. Description: Cell toxicity (dead cells, size <150 μm2) in LPS assay. The conditions noted are these: for IC50: read-out: Cell Toxicity IC50 (uM) [LPS assay].
The test system of data set [7] is primary rat microglia. Kind of data set: Cell toxicity (dead cells, size <150 μm2) in coated fibrin (cFib) assay.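 On Fibrin % cell toxicity: share of dead cells sized under 150 µm2 at 10 µM in fibrin-stimulated microglia HTS.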
The nature of data set [8]: in vitro. Particulars: rat, Cell Toxicity IC50 (uM) [cFib assay], cFib assay.
A short description of data set [9]: in vitro. Particulars: rat.
Where [10] appears, read: increased cell size (>800 μm^2) as marker of activation.
Setting [11] is: LPS-induced microglia activation, dose response, read-out: LPS IC50 (uM) (Suppl. Table 7).
[12] abbreviates: Table 1, dose response 0.001-20 μM, triplicates, primary rat microglia, 48 h, read-out: LPS IC50.
Setting [13] is: dose response, LPS-induced microglia activation, read-out: LPS IC50.
Where [14] appears, read: primary microglia HTS, LPS stimulation, increased cell size (>800 μm^2) as marker of activation.
Setting [15] is: HTS of 1907 compounds, quadrant by fibrin and LPS inhibition.
The mark [16] stands for this setting: hit classification in microglia HTS.
The mark [17] stands for this setting: quadrant by fibrin and LPS inhibition in HTS of 1907 compounds.
Setting [18] is: read-out: Cell Toxicity IC50 (uM) [cFib assay], cFib assay.
The mark [19] stands for this setting: Rattus norvegicus, Microglia, 48 h, Table 1, dose response 0.001-20 μM, triplicates, primary rat microglia, 48 h, read-out: Fibrin IC50.
Setting [20] is: Rattus norvegicus, Microglia, dose response, fibrin-induced microglia activation, read-out: Fibrin IC50.
Where [21] appears, read: Rattus norvegicus, Microglia, fibrin-induced microglia activation, dose response, read-out: Fibrin IC50 (uM) (Suppl. Table 7).
[22] abbreviates: Rattus norvegicus, Microglia, increased cell size (>800 μm^2) as marker of activation.
Setting [23] is: Rattus norvegicus, Microglia, 48 h, Table 1, dose response 0.001-20 μM, triplicates, primary rat microglia, 48 h, read-out: LPS IC50.
The mark [24] stands for this setting: Rattus norvegicus, Microglia, 48 h, primary microglia HTS, LPS stimulation, increased cell size (>800 μm^2) as marker of activation.
The mark [25] stands for this setting: Rattus norvegicus, Microglia, LPS-induced microglia activation, dose response, read-out: LPS IC50 (uM) (Suppl. Table 7).
Where [26] appears, read: Rattus norvegicus, Microglia, dose response, LPS-induced microglia activation, read-out: LPS IC50.
The mark [27] stands for this setting: Microglia, HTS hit classification, read-out: Hit.
[28] abbreviates: hit classification in microglia HTS, read-out: Cherry-picked Hit (Suppl. Table 7).
Setting [29] is: Rattus norvegicus, Microglia, cell size >800 μm2 as marker of activation.
Setting [30] is: Rattus norvegicus, Microglia, 48 h.
Setting [31] is: classification by fibrin and LPS inhibition in HTS.

SMILES strings stand for the structures. Read-outs that look alike come from different tables or passages of the source.

`CC(=O)[C@@]1(O)CC[C@H]2[C@@H]3C=C(Cl)C4=CC(=O)[C@@H]5C[C@@H]5[C@]4(C)[C@H]3CC[C@@]21C` [Cyproterone, reference compound] showed a Fibrin % inhibition in data set [1] (setting [10]) of 51%. Also, the IC50 in [2] (setting [11]), in data set [2] (setting [12]), in [2] (setting [13]), in data set [6] (LPS assay) and in data set [7] (setting [18]) was more than 20 µM each time. This compound displayed an LPS % inhibition in data set [2] (setting [14]) of 5%. For the same compound, the Hit entry in data set [3] (HTS hit classification) was “HIT (Hits were defined as molecules that exhibited greater than 50% inhibition of either fibrin or LPS activation)”. The “Quadrant (FIG. 5b)” value is “Q3” in data set [3] (setting [15]); “Q3” in [3] (Table 1, screen at 10 μM); “Q3” in data set [3] (setting [17]). The “Cherry-picked Hit (Suppl. Table 7)” value in data set [3] (setting [16]) is “HIT (Hits were defined as molecules that exhibited greater than 50% inhibition of either fibrin or LPS activation)”. Further, in [4], the “Fibrin % cell toxicity” value turned out to be 1%. Moreover, the “LPS % cell toxicity” value in data set [5] was 0%.

Turning to `CC1(C)O[C@@H]2C[C@H]3[C@@H]4C[C@H](F)C5=CC(=O)C=C[C@]5(C)[C@H]4[C@@H](O)C[C@]3(C)[C@]2(C(=O)CO)O1` [Flunisolide, reference compound], the IC50 in [1] (setting [19]), in [1] (setting [20]), in data set [1] (setting [21]), in data set [2] (setting [23]), in [2] (setting [25]) and in [2] (setting [26]) was less than 0.001 µM each time. Besides, the IC50 in [8] and in data set [9] was more than 20 µM in each case. Moreover, the inhibition at 10 µM is 104% in data set [1] (setting [22]), 101% in data set [2] (setting [24]), more than 50% in [3] (setting [27]) and more than 50% in data set [3] (setting [28]). The “Quadrant (FIG. 5b)” value in data set [3] (setting [15]) is on record as “Q2”; in data set [3] (Table 1, screen at 10 μM), “Q2”; in [3] (setting [17]) it was “Q2”.

Regarding `CC[C@@H](C(=O)[C@@H](C)[C@@H](O)[C@H](C)[C@@H]1O[C@@H]([C@@H](CC)C(=O)O)CC[C@@H]1C)[C@H]1O[C@]2(C=C[C@@H](O)[C@]3(CC[C@@](C)([C@H]4CC[C@](O)(CC)[C@H](C)O4)O3)O2)[C@H](C)C[C@@H]1C` [Salinomycin, sodium, reference compound], the IC50 in data set [1] (setting [19]), in data set [1] (setting [20]), in [1] (setting [21]), in data set [2] (setting [23]), in data set [2] (setting [25]) and in data set [2] (setting [26]) was 2 µM each time. Further, the IC50 is more than 20 µM in [8] and 3.86 µM in [7] (Rattus norvegicus, Microglia, read-out: dead_IC50 (uM), Table 7, fibrin or LPS assay not specified). Further, the inhibition at 10 µM was 100% in [1] (setting [22]), 101% in data set [2] (setting [24]), more than 50% in data set [3] (setting [27]) and more than 50% in data set [3] (setting [28]). Further, the “Quadrant (FIG. 5b)” value was “Q2” in data set [3] (setting [15]); “Q2” in [3] (Table 1, screen at 10 μM); “Q2” in data set [3] (setting [17]). For the same compound, the Activity result in data set [3] (Table 7, fib = fibrin, LPS, tox = toxicity, sodium) was “fib/LPS”. Also, in [6] (primary microglia HTS, LPS stimulation, decreased size (<150 μm^2) as marker of toxicity), the “LPS % cell toxicity” value amounted to 1%. Also, the “Fibrin % cell toxicity” value in [7] (primary microglia HTS, fibrin stimulation, decreased size (<150 μm^2) as marker of toxicity) is on record as 3%.

Take `COc1cc2c(cc1O)CC[C@@H]1[C@@H]2CC[C@]2(C)[C@@H](O)CC[C@@H]12` [2-methoxyestradiol, reference compound]: the “Fibrin Selectivity” value in data set [1] is recorded as 2. For the same compound, in [1], the “Fibrin Selectivity (LOG10)” value stood at 0.21. Further, the IC50 was 3 µM in [1] (Table 1, dose response 0.001-20 μM, triplicates, primary rat microglia, 48 h, read-out: Fibrin IC50); 3 µM in data set [1] (Table 3, read-out: Fibrin IC50 (uM) (Suppl. Table 7)); 3 µM in data set [1] (dose response, fibrin-induced microglia activation, read-out: Fibrin IC50); 3 µM in data set [1] (fibrin-induced microglia activation, dose response, read-out: Fibrin IC50 (uM) (Suppl. Table 7)); 5 µM in [2] (setting [11]); 5 µM in data set [2] (setting [12]). Also, the IC50 is 5 µM in data set [2] (Table 3, read-out: LPS IC50 (uM) (Suppl. Table 7)); 5 µM in data set [2] (setting [13]); more than 20 µM in data set [6] (LPS assay); more than 20 µM in data set [6] (Table 3); more than 20 µM in [7] (read-out: Cell Toxicity IC50 (uM) [cFib assay], Table 3); more than 20 µM in data set [7] (setting [18]). Moreover, the Fibrin % inhibition in data set [1] (setting [10]) is 63%. In addition, the LPS % inhibition in data set [2] (setting [14]) is 65%. Also, the Hit entry in data set [3] (HTS hit classification) is listed as “HIT (Hits were defined as molecules that exhibited greater than 50% inhibition of either fibrin or LPS activation)”. Moreover, the “Quadrant (FIG. 5b)” value in [3] (setting [15]) is “Q2”; in data set [3] (Table 1, screen at 10 μM), “Q2”; in data set [3] (Table 3, screen at 10 μM), “Q2”; in data set [3] (setting [17]), “Q2”. Further, the “Cherry-picked Hit (Suppl. Table 7)” value in data set [3] (Table 3) and in data set [3] (setting [16]) was “HIT (Hits were defined as molecules that exhibited greater than 50% inhibition of either fibrin or LPS activation)” in each case. Besides, the “Fibrin % cell toxicity” value in data set [4] is recorded as 2%. The “LPS % cell toxicity” value in data set [5] is given as 2%.

Regarding `C[C@@H]1C[C@H]2[C@@H]3CCC4=CC(=O)C=C[C@]4(C)[C@@]3(F)[C@@H](O)C[C@]2(C)[C@@]1(O)C(=O)CO` [Dexamethasone, reference compound], the IC50 was 15 µM in data set [1] (setting [19]); 0.002 µM in [1] (Rattus norvegicus, Microglia, Table 7, read-out: fib_IC50); 15 µM in data set [1] (setting [20]); 15 µM in data set [1] (setting [21]); more than 20 µM in [2] (setting [23]); more than 20 µM in data set [2] (setting [25]). For the same compound, the IC50 in data set [2] (Rattus norvegicus, Microglia, Table 7, read-out: LPS_IC50) was 0.002 µM; in [2] (setting [26]) it was more than 20 µM; in data set [8], more than 20 µM; in [9] it was more than 20 µM. The “Quadrant (FIG. 5b)” value in data set [3] (setting [15]) is “Q3”; in [3] (Table 1, screen at 10 μM) it was “Q3”; in data set [3] (Table 2, screen at 10 μM), “Q3”. Also, the inhibition at 10 µM in [3] (setting [27]) and in data set [3] (setting [28]) was more than 50% in each case.

Turning to `C=C1CC[C@H](O)C/C1=C/C=C1\CCC[C@]2(C)[C@@H]([C@H](C)/C=C/[C@H](C)C(C)C)CC[C@@H]12` [Ergocalciferol], the inhibition at 10 µM was -6% in data set [1] (Rattus norvegicus, Microglia, compounds at 10 μM) and 7% in data set [2] (Rattus norvegicus, Microglia, primary microglia HTS, LPS stimulation, compounds at 10 μM). In data set [3] (classification by fibrin and LPS inhibition, HTS at 10 μM), the “Quadrant (FIG. 5b)” value is recorded as “Q4”. Further, the “Fibrin % cell toxicity” value in [4] (rat) is 1%. In addition, the “LPS % cell toxicity” value in data set [5] (rat) was 0%.

Take `Cc1ncc(CO)c(CO)c1O` [Pyridoxine]: the figures for the inhibition at 10 µM in data set [1] (setting [29]) and in data set [2] (setting [30]) were 1% and 21%, respectively. Also, in [3] (setting [31]), the “Quadrant (FIG. 5b)” value is recorded as “Q4”. Further, the “Fibrin % cell toxicity” value in [4] (rat) was 1%. Further, in data set [5] (rat), the “LPS % cell toxicity” value stood at 0%.

On to `Fc1ccc([C@@H]2CCNC[C@H]2COc2ccc3c(c2)OCO3)cc1` [Paroxetine], for which the inhibition at 10 µM in data set [1] (setting [29]) is 38%; in data set [2] (setting [30]), 15%. For the same compound, the “Quadrant (FIG. 5b)” value in data set [3] (setting [31]) is reported as “Q4”. The “Fibrin % cell toxicity” value in data set [4] (rat) is recorded as 1%. The “LPS % cell toxicity” value in data set [5] (rat) is 0%.
